According to patent US20180116993A1, “MODULATORS OF FARNESOID X RECEPTOR AND METHODS FOR THE USE THEREOF” (XIAMEN UNIVERSITY, priority 2015, published 2018):
Where two headings read alike, the source gives them in different places.

Assays:
[1] = tested on: RA-resistant human colon cancer HCT116 cells; experiment: MTT cell viability assay, HCT116; assay type: cell-based; details: 48 h, read-out: Cell viability as a percentage of the cells treated with DMSO, HCT116; for viability at 20 µM: HCT-116, 20 uM; for viability at 40 µM: HCT-116, 40 uM
Procedure, shortened: (§1)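 Compound tested at two concentrations, 20 uM and 40 uM, on cells kept in 10% FBS/DMEM. MTT assay; percent of DMSO.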

[2] = tested on: human hepatoma HepG2 cells; experiment: MTT cell viability assay, HepG2; assay type: cell-based; details: 48 h, read-out: Cell viability as a percentage of the cells treated with DMSO, HepG2
Procedure, shortened: as §1

[3] = tested on: human breast cancer MCF7 cells; experiment: MTT cell viability assay, MCF-7; assay type: cell-based; details: 48 h, read-out: Cell viability as a percentage of the cells treated with DMSO, MCF-7
Procedure, shortened: as §1

full-length FXR = molecular target: T1, full-length FXR (Homo sapiens, UniProt Q96RI1); experiment: Cell-based FXR transactivation, EcRE luciferase reporter in COS-7 cells; details: for Cell-based FXR transactivation Fold changes by 5 μM compound: positive: induction, minus: repression; for EC50 / fold induction at 5 µM: EcRE luciferase reporter; for Cell-based FXR transactivation Fold changes by 5 μM compound / fold induction at 5 µM: 5 μM compound
T1 construct: The cells were co-transfected with plasmids encoding full-length FXR and the cognate luciferase reporter EcRE-Luc; expressed in transfected cells; host or cells: COS-7
T1 sequence (Q96RI1 1-486): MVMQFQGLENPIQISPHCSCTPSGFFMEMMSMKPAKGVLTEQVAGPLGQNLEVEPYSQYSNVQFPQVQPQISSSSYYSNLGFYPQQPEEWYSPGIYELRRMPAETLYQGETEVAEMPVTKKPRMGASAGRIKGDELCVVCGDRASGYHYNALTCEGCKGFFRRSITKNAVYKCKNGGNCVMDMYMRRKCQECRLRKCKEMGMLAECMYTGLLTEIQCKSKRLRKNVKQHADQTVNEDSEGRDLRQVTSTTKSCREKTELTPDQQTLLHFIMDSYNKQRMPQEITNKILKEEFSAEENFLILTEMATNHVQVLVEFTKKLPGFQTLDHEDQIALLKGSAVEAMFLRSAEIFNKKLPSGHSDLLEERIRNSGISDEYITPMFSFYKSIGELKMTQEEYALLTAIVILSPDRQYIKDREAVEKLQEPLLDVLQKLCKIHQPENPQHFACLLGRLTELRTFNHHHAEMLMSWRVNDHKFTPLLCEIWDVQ
Procedure, shortened: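 COS-7 cells were transiently cotransfected with full-length FXR, EcRE-Luc reporter and a renilla control. Ligands were added 5 h after transfection, and cells were harvested 24 h later. Firefly luciferase was normalized to renilla in a dual-luciferase read-out.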

[4] = tested on: human cervical carcinoma Hela cells; experiment: MTT cell viability assay, Hela; assay type: cell-based; details: 48 h, read-out: Cell viability as a percentage of the cells treated with DMSO, Hela
Procedure, shortened: as §1

[5] = tested on: human colorectal adenocarcinoma HCT15 cells; experiment: MTT cell viability assay, HCT15; assay type: cell-based; details: 48 h, read-out: Cell viability as a percentage of the cells treated with DMSO, HCT15; for viability at 20 µM: HCT-15, 20 uM; for viability at 40 µM: HCT-15, 40 uM
Procedure, shortened: as §1

[6] = molecular target: T2, FXR ligand binding domain (LBD) (Homo sapiens, UniProt Q96RI1); experiment: AlphaScreen assay: FXR LBD recruitment of coregulator peptide motifs (SRC2-3, SRC1-2); assay type: biochemical
T2 construct: made in house
T2 sequence (Q96RI1 262-486 limits assumed): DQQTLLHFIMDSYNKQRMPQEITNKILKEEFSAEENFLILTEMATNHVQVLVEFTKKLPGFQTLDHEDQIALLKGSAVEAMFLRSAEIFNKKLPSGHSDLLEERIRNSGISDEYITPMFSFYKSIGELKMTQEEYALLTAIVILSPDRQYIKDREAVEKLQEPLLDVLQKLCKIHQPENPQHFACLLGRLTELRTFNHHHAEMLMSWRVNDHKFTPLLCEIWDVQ

[7] = SRC1-2 peptide, Table 2, read-out: EC50 (μM) of FXR binding by AlphaScreen assay recruit SRC1-2
[8] = SRC2-3 peptide, Table 2, read-out: EC50 (μM) of FXR binding by AlphaScreen assay recruit SRC2-3
[9] = SRC1-2 peptide, Table 1, read-out: EC50 (μM) of FXR binding by AlphaScreen assay recruit SRC1-2
[10] = SRC2-3 peptide, Table 1, read-out: EC50 (μM) of FXR binding by AlphaScreen assay recruit SRC2-3

SMILES | Cell-based FXR transactivation Fold changes by 5 μM compound (full-length FXR; Table 2) | EC50 (full-length FXR; Table 2) | EC50 [6, 7] | EC50 [6, 8] | fold induction at 5 µM (full-length FXR; Table 1) | EC50 (full-length FXR; Table 1) | EC50 [6, 9] | EC50 [6, 10] | viability at 20 µM [1] | viability at 40 µM [1] | viability at 20 µM [2] | viability at 40 µM [2] | viability at 20 µM [3] | viability at 40 µM [3] | viability at 20 µM [4] | viability at 40 µM [4] | viability at 20 µM [5] | viability at 40 µM [5]
CC1(C)[C@@H]2CC[C@@]1(C)[C@@H](OC(=O)c1ccc(O)cc1)C2 [Tschimgine] |  |  |  |  | > 10 | < 1000 nM | < 1 µM | < 1 µM | 93 ± 4% | 25 ± 5% | 97% | 30 ± 3% | 93% | 32% | 94% | 31 ± 4% | 97 ± 6% | 31 ± 2%
COc1cc(C(=O)O[C@H]2C[C@H]3CC[C@]2(C)C3(C)C)ccc1O [Tschimganine] |  |  |  |  | > 10 | < 1000 nM | < 1 µM | < 1 µM | 97 ± 1% | 90 ± 4% | 100 ± 1% | 97 ± 3% | 100 ± 3% | 99 ± 3% | 98 ± 2% | 97 ± 4% | 100 ± 1% | 80 ± 9%
COc1cc(C(=O)OC2CCC3CCCCC3C2)ccc1[N+](=O)[O-] (centres unmarked) [XD-36, decahydro-naphthalen-2-yl 3-methoxy-4-nitrobenzoate] | 3 | 1000 to 10000 nM |  | 1 to 10 µM |  |  |  |  | 93 ± 3% | 91 ± 3% | 100 ± 3% | 81 ± 3% | 100 ± 3% | 87% | 93 ± 3% | 85 ± 3% | 100 ± 3% | 92 ± 3%
CC1(C)C2CCC1(C)C(OC(=O)c1ccc(=O)oc1)C2 (centres unmarked) [XD-9, 1,7,7-trimethyl-bicyclo[2.2.1]-heptan-2-yl 6-oxo-6H-pyran-3-carboxylate] | 4 | 1000 to 10000 nM | 1 to 10 µM | 1 to 10 µM |  |  |  |  | 58 ± 2% | 25 ± 2% | 90 ± 3% | 64 ± 3% | 72 ± 6% | 31% | 80 ± 3% | 59 ± 5% | 49 ± 2% | 42 ± 3%
COc1cc(C(=O)OC2C/C(C)=C/CC/C(C)=C/[C@@H](O)[C@H]2C(C)C)ccc1O (some centres unmarked) [Tschimganidine] |  |  |  |  | > 10 | < 1000 nM | < 1 µM | < 1 µM | 95 ± 4% | 40 ± 7% | 94% | 48 ± 4% | 100 ± 4% | 85% | 96% | 30 ± 5% | 85 ± 9% | 60 ± 10%
CC1(C)C2CCC1(C)C(OC(=O)c1ccc(=O)[nH]c1)C2 (centres unmarked) [XD-8, 1,7,7-trimethyl-bicyclo[2.2.1]-heptan-2-yl 6-oxo-1,6-dihydropyridine-3-carboxylate] | 4 | 1000 to 10000 nM | 1 to 10 µM | 1 to 10 µM |  |  |  |  | 92 ± 7% | 60 ± 3% | 90% | 64 ± 3% | 94 ± 10% | 75% | 97% | 71 ± 3% | 78 ± 4% | 60 ± 4%

Further lines, with some results ahead:

Cell-based FXR transactivation Fold changes by 5 μM compound (full-length FXR; Table 2) | EC50 (full-length FXR; Table 2) | EC50 [6, 7] | EC50 [6, 8] | fold induction at 5 µM (full-length FXR; Table 1) | EC50 (full-length FXR; Table 1) | EC50 [6, 9] | EC50 [6, 10] | SMILES | viability at 20 µM [1] | viability at 40 µM [1] | viability at 20 µM [2] | viability at 40 µM [2] | viability at 20 µM [3] | viability at 40 µM [3] | viability at 20 µM [4] | viability at 40 µM [4] | viability at 20 µM [5] | viability at 40 µM [5]
4 | 1000 to 10000 nM | 1 to 10 µM | 1 to 10 µM |  |  |  |  | O=C(OC1CCCCCCCCCCC1)c1ccc(O)cc1 [XD-11, cyclododecyl 4-hydroxybenzoate] | 92 ± 2% | 70 ± 7% | 100 ± 1% | 97 ± 1% | 100 ± 7% | 100 ± 2% | 100 ± 3% | 100 ± 2% | 89 ± 2% | 78 ± 3%
 |  |  |  | 8 | < 1000 nM | < 1 µM | < 1 µM | O=C(OC1CCCCCCC1)c1ccc(O)cc1 [XD-10, cyclooctyl 4-hydroxybenzoate] | 92 ± 6% | 30 ± 4% | 90 ± 3% | 35 ± 1% | 93 ± 7% | 28% | 90 ± 4% | 40 ± 3% | 60 ± 4% | 41 ± 4%
3 | < 1000 nM | < 1 µM | < 1 µM |  |  |  |  | Cc1cc(C(=O)OC2CCCCCCC2)ccc1O [XD-17, cyclooctyl 4-hydroxy-3-methylbenzoate] | 82 ± 2% | 27 ± 3% | 87% | 40 ± 1% | 91 ± 9% | 25% | 83 ± 4% | 39 ± 1% | 52 ± 2% | 24 ± 3%
3 | < 1000 nM | < 1 µM | < 1 µM |  |  |  |  | COc1cc(C(=O)OC2CCCCCCC2)ccc1O [XD-18, cyclooctyl 4-hydroxy-3-methoxybenzoate] | 92 ± 1% | 30 ± 2% | 96 ± 3% | 55 ± 1% | 98 ± 10% | 32% | 100 ± 3% | 71 ± 3% | 91 ± 4% | 40 ± 4%
3 | < 1000 nM | < 0.5 µM | < 0.5 µM |  |  |  |  | COc1cc(C(=O)OC2CCC3CCCCC3C2)ccc1O (centres unmarked) [XD-30, decahydro-naphthalen-2-yl 4-hydroxy-3-methoxybenzoate] | 100 ± 2% | 100 ± 2% | 100 ± 2% | 94 ± 2% | 100 ± 2% | 92 ± 2% | 81% | 79 ± 2% | 96 ± 2% | 77 ± 2%
1.5 |  | > 10 µM | > 10 µM |  |  |  |  | Nc1ccc(C(=O)OC2CCCCCC2)cc1 [XD-12, cycloheptyl 4-aminobenzoate] | 77 ± 3% | 65 ± 3% | 100 ± 2% | 97 ± 3% | 100 ± 4% | 82% | 100 ± 2% | 90 ± 5% | 65 ± 4% | 54 ± 4%
5 | < 1000 nM | < 1 µM | < 1 µM |  |  |  |  | Nc1ccc(C(=O)OC2CCCCCCC2)cc1 [XD-16, cyclooctyl 4-aminobenzoate] |  |  |  |  |  |  |  |  |  | 
